Assay results published in US20230123334A1, “AMINO LIPID COMPOUND, PREPARATION METHOD THEREFOR, AND APPLICATION THEREOF” (SHENZHEN SHENXIN BIOTECHNOLOGY CO., LTD., priority 2020, published 2023).

Key:
Format in all cases: cell-based
Hela cells [1] = test: Transfection of Hela cell line, mRNA vectors; conditions: 50 ng EGFP mRNA per well
Method in brief: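 HeLa cells in DMEM with 10% FBS transfected with 50 ng EGFP mRNA per well. Readout is percentage of GFP-positive cells among total cells counted by Hoechst nuclear stain; Lipofectamine2000 served as positive control.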

cardiomyocytes [2] = test: Screening as mRNA vectors in cardiomyocytes; conditions: 50 ng EGFP mRNA per well
Experimental: Cell line: cardiomyocytes (obtained from induced differentiation of hESC according to reported methods: J Mol. Cell. Cardiol. 2011, 51, 288-298)
(§1) Medium: DMEM supplemented with 10% fetal bovine serum (Invitrogen)
(§2) Mode of screening: cell transfection on 96-well plates
(§3) Detection (readout): percentage of the number of GFP fluorescent cells relative to the total number of cells (the total number of cells was determined using nucleus dye Hoechst). Lipofectamine Stem (Invitrogen) was used as the positive control, according to the manufacturer's instructions.
Method: the experimental method was basically the same with Example 4, and the mass of EGFP mRNA for transfection was 50 ng per well.

MCF7 cells [3] = test: Transfection of MCF7 cell line, mRNA vectors; conditions: 50 ng EGFP mRNA per well
Experimental: (§4) Cell line: MCF7 cells (ATCC HTB-22)
Medium: DMEM supplemented with 10 fetal bovine serum (Invitrogen)
(§5) Screening: cell transfection on 96-well plates
Detection (readout): percentage of the number of GFP fluorescent cells relative to the total number of cells (the total number of cells was determined using nucleus dye Hoechst). Lipofectamine2000 (Invitrogen) was used as the positive control.
Method: the experimental method was basically the same with Example 4, and the mass of EGFP mRNA (TriLink) for transfection was 50 ng per well.

[4] = tested on: embryonic stem cells (hESC2); test: Screening as mRNA vectors in embryonic stem cells; conditions: 50 ng EGFP mRNA per well
Experimental: (§6) Cell line: embryonic stem cells (hESC2, cultured according to reported methods: Stem Cells, 2005, 23, 544-549)
(§7) Medium: mTeSR1 (STEMCELL)
Mode of screening: cell transfection on 96-well plate
(§8) Detection (readout): percentage of the number of GFP fluorescent cells relative to the total number of cells. Lipofectamine Stem was used as the positive control.
Method: the experimental method was basically the same with Example 10, and the mass of EGFP mRNA for transfection was 50 ng per well.

cardiomyocytes [5] = test: Screening as DNA vectors in cardiomyocytes; parameters: concentration or dose not given beside the values; conditions: method as Example 4
Experimental: Cell line: cardiomyocytes (obtained from induced differentiation of hESC according to reported methods: J. Mol. Cell. Cardiol. 2011, 51, 288-298)
as §1, §2, §3
(§9) Method: the experimental method was basically the same with Example 4.

[6] = tested on: embryonic stem cells (hESC2); test: Screening as DNA vectors in embryonic stem cells, flow cytometry; conditions: 75 ng plasmid DNA, 48 hours after transfection, flow cytometer
Excerpt: as §6, §7, §2, §8
Method: an 8-channel pipette was used for sample addition. The contents shown were for a single well of a 96-well flat plate.
1. Stem cells were cultured to 3-5×10^4 cells per well in a 96-well plate treated with matrigel.
2. The compound (0.01 mmol) prepared in Example 1 was dissolved in 1 mL of anhydrous ethanol. After ultrasonically dissolved, 10 μL of the resultant amino lipid solution in ethanol was taken and mixed with 5 μL of DOPE solution in ethanol ([…]). The obtained mixture was then added with 35 μL of 0.2 M sodium acetate buffer (pH 5.6), and vortexed at a constant rotating speed for 30 s. Then, 4 μL was taken from the obtained product and added to 46 μL of 0.02 M sodium acetate buffer (pH 5.6), and vortexed at a constant rotating speed for 30 s to form a liposome solution. 5 μL of this liposome solution was mixed with 75 ng of plasmid DNA (pSin-EGFP-IRES-Puro) dissolved in 5 μL of 0.02 M sodium acetate buffer, and allowed to stay at room temperature for 30 min to form a lipid/DNA transfection complex.
3. 10 μL of the lipid/DNA transfection complex was incubated at room temperature for 30 min, followed by addition of 90 μL mTeSR1 medium was added and mixing with a pipette. 100 μL of the mixture was added to separate wells of a 96-well culture plate and placed in an incubator containing 5% CO2 at 37° C.
4. 48 hours after transfection, the cells were digested with 0.05% Trypsin-EDTA. The cells were resuspended in a PBS buffer and filtered. The cell suspension was placed in a flow cytometer and the number of GFP-expressing cells in no less than 2000 cells was measured so as to obtain the absolute efficiency of cell transfection. The relative efficiency of cell transfection was obtained by comparing the cell transfection efficiency with the positive control Lipofectamine Stem.

MCF7 cells [7] = test: Transfection of MCF7 cell line, DNA vectors; parameters: concentration or dose not given beside the values; conditions: plasmid DNA, GFP cells / total cells
Experimental: as §4
Medium DMEM supplemented with […] fetal bovine serum
as §5
Detection (readout): percentage of the number of GFP fluorescent cells relative to the total number of cells (the total number of cells was determined using nucleus dye Hoechst). Lipofectamine2000 was used as the positive control, according to the manufacturer's instructions.
as §9

Hela cells [8] = test: Transfection of Hela cell line, DNA vectors; conditions: 75 ng plasmid DNA, GFP cells / total cells
Method in brief: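 Amino lipid/DOPE liposomes in sodium acetate pH 5.6 were complexed with 75 ng psin-EGFP-IRES-Puro plasmid for 30 min at room temperature, then mixed with 3-5×10^4 Hela cells in DMEM/10% FBS at 37° C. Hoechst stain after 20-24 h, imaging after a further 20-24 h. Efficiency = GFP-positive cells / total nuclei.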

HEK293 cells [9] = test: Preliminary screening as DNA vectors, GFP transfection of HEK293 cells; conditions: HEK293 cells; lipid/DOPE liposome with 75 ng plasmid DNA (psin-EGFP-IRES-Puro); number of cells expressing GFP divided by total number of nuclei (Hoechst)
Method in brief: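 HEK293 cells in DMEM/10% FBS transfected with 75 ng EGFP plasmid per well complexed with amino lipid/DOPE liposomes in pH 5.6 sodium acetate. Hoechst nuclear stain added 20-24 h post-transfection, then cells cultured another 20-24 h. Confocal imaging gives GFP-positive cells as % of total nuclei.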

HEK293 cells [10] = test: Preliminary screening as mRNA vectors, EGFP mRNA transfection of HEK293 cells; conditions: HEK293 cells, 96-well plates, EGFP mRNA 50 ng per well; percentage of GFP fluorescent cells relative to total number of cells (Hoechst)
Method in brief: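 HEK293 cells in DMEM plus 10% FBS transfected in 96-well format with 50 ng EGFP mRNA per well; Lipofectamine2000 served as positive control. Read-out is the percentage of GFP-fluorescent cells among total cells, counted by Hoechst nuclear stain.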

SMILES	Absolute mRNA transfection efficiency in Hela cells (Hela cells [1])	Absolute mRNA transfection efficiency in cardiomyocytes (cardiomyocytes [2])	Absolute mRNA transfection efficiency in MCF7 cells (MCF7 cells [3])	Absolute mRNA transfection efficiency in embryonic stem cells [4]	Absolute DNA transfection efficiency in cardiomyocytes (cardiomyocytes [5])	Absolute DNA transfection efficiency in embryonic stem cells [6]	Absolute DNA transfection efficiency in MCF7 cells (MCF7 cells [7])	Absolute DNA transfection efficiency in Hela cells (Hela cells [8])	Absolute DNA transfection efficiency in HEK293 cells (HEK293 cells [9])	Absolute mRNA transfection efficiency in HEK293 cells (HEK293 cells [10])
CCCCCCCCCCCSc1nc(NCCCCCCCCC)nc(NCCN2CCN(C)CC2)n1 [Compound S11N9D5]	10.6%	30.7%	17.8%	24.9%	19.7%	0.5%	23.1%	10.6%	–	–
CCCCCCCCCCCSc1nc(NCCCCCCCCC)nc(NCCCN2CCN(C)CC2)n1 [Compound S11N9D9]	11.8%	21.0%	27.3%	33.5%	0.3%	1.4%	33.5%	11.8%	–	–
CCCCCCCCCCCNc1nc(NCCN2CCCC2)nc(SCCCCCCCCC)n1 [Compound S9N11D3]	21.8%	16.7%	7.9%	1.7%	0.4%	0.4%	26.6%	21.8%	–	–
CCCCCCCCCCCCCCCCSc1nc(NCCCN(C)C)nc(SCCCCCCCCC)n1 [Compound S9S16D6]	27.8%	–	34.2%	–	–	–	39.7%	27.8%	55.4%	71.5%
CCCCCCCCCCCNc1nc(NCCCN2CCN(C)CC2)nc(SCCCCCCCCC)n1 [Compound S9N11D9]	24.6%	45.4%	11.8%	2.9%	1.1%	6.6%	27.3%	24.3%	–	–
CCCCCCCCCCCCSc1nc(NCCCN2CCN(C)CC2)nc(SCCCCCCCC)n1 [Compound S8S12D9]	1.7%	14.0%	5.3%	16.3%	1.0%	2.9%	13.1%	1.7%	–	–
CCCCCCCCCCCCSc1nc(NCCN2CCN(C)CC2)nc(SCCCCCCCC)n1 [Compound S8S12D5]	12.4%	2.5%	32.6%	24.9%	2.4%	1.7%	26.3%	12.4%	–	–
CCCCCCCCCCCNc1nc(NCCCN2CCOCC2)nc(SCCCCCCCCC)n1 [Compound S9N11D8]	13.9%	4.4%	2.7%	5.9%	0.8%	0.6%	13.1%	13.9%	–	–
CCCCCCCCCCCCCCCCSc1nc(NCCCN2CCN(C)CC2)nc(SCCCCCCCCC)n1 [Compound S9S16D9]	6.9%	–	33.8%	–	–	–	23.0%	6.9%	13.9%	41.4%
CCCCCCCCCCCCCCCCSc1nc(NCCN2CCCC2)nc(SCCCCCCCCC)n1 [Compound S9S16D3]	0.0%	–	3.0%	–	–	–	14.1%	0.0%	0.0%	25.3%
CCCCCCCCCCCCCCCCSc1nc(NCC2CCN(C)CC2)nc(SCCCCCCCCC)n1 [Compound S9S16D10]	28.6%	–	46.0%	–	–	–	36.9%	28.6%	56.9%	66.4%
CCCCCCCCCCCCCCCCSc1nc(NCCCN2CCOCC2)nc(SCCCCCCCCC)n1 [Compound S9S16D8]	11.6%	–	7.7%	–	–	–	6.2%	11.6%	23.2%	11.2%
CCCCCCCCCCCSc1nc(NCCCCCCC)nc(NCCN2CCCC2)n1 [Compound S11N7D3]	9.8%	–	5.8%	–	–	–	4.4%	9.8%	–	–
